# Results published in US12509451B2, “Heteroaryl amide inhibitors of CD38” (NAPA THERAPEUTICS LTD., priority 2020, dated 2025).
# Columns and labels:
# [1] = biological target: T1, recombinant human CD38 Protein (Homo sapiens, UniProt P28907); experiment: Fluorescence-based NAD+ hydrolase activity assay with human recombinant CD38 protein (Assay 3); format: biochemical; conditions: read-out: Assay 3 Arithmetic mean IC50
# T1 construct: purchased R&D System
# T1 sequence (P28907 1-300): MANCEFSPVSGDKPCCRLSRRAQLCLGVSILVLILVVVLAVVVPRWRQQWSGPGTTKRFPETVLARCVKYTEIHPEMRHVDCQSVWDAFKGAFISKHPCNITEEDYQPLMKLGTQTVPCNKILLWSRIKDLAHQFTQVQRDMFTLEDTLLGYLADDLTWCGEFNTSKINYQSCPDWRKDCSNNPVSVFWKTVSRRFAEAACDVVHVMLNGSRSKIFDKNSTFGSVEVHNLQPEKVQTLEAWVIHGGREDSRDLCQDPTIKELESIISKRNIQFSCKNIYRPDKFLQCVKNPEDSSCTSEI
# Method: This protocol was modified from the following references (Muller et al. (1983); (Schultz et al. (2018); (Matalonga et al. (2017); and de Oliveira et al. (2018), supra.
# (§1) NAD+ hydrolase activity of the human recombinant CD38 protein treated with test compounds was measured using a fluorescence-based assay. Briefly, recombinant human CD38 Protein (R&D System) was resuspended in 44 μl/well of Sucrose-Tris Buffer (Sucrose 0.25 M, Tris pH 7.4 40 mM) and plated in a 96-well black plate (CORNING) at a density of 10 ng/well.
# (§2) Each test compound was received in a powder state and dissolved in DMSO as a 25 mM stock solution. Each test compound was serially diluted in order to generate a dose-response curve. The dilution series of each test compound in DMSO was prepared at 50× the concentrations to be assayed. Each test compound was diluted to generate a 5-fold dilution series of 8 concentrations from 20 μM to 0.256 nM in order to assay 8 final concentrations ranging from ranging from 400 nM to 25.6 pM. One μl of the 50× concentration compound series was added to each well of the plate containing 10 ng protein in Sucrose-Tris buffer.
# The reaction was started adding nicotinamide 1,N^6-etheno-adenine dinucleotide (Sigma Aldrich) to reach a final concentration of 80 µM. The samples were excited at 321-15 nm and the emission of fluorescence was measured at 410-20 nm at 37° C. every minute for 1 hr in a Clariostar® microplate reader (BMG LABTECH). NAD+ hydrolase activity was calculated as the slope of the linear portion of the fluorescence-time curve using the MARS data analysis software (BMG LABTECH). The data were uploaded in the Collaborative Drug Design (CDD) Software and for each compound the IC50 was calculated by the software. […] For each plate, the z-factor was also calculated as a plate quality using the CDD software.
# [2] = biological target: T1, recombinant human CD38 Protein; experiment: Fluorescence-based NAD+ cyclase activity assay with human recombinant CD38 protein (Assay 2); format: biochemical; conditions: read-out: Assay 2 Arithmetic mean IC50
# Method: This protocol was modified from the de Oliveira et al., 2018 reference, supra.
# as §1, with “cyclase” for “hydrolase”, “125” for “10”
# Each test compound was received in a powder state and dissolved in DMSO as a 25 mM stock solution. Each test compound was serially diluted in order to generate a dose-response curve. The dilution series of each test compound in DMSO was prepared at 50 times the concentrations to be assayed. Each test compound was diluted to generate a 5-fold dilution series of 8 concentrations from 100 μM to 32 nM in order to assay 8 final concentrations ranging from 2 μM to 0.64 nM. One μl of the 50× concentration compound series was added to each well of the plate containing 125 ng of protein in Sucrose-Tris buffer.
# The reaction was started adding nicotinamide guanine dinucleotide (NGD+) (Sigma Aldrich) to reach a final concentration of 150 µM. The samples were excited at 337-15 nm, and the emission of fluorescence was measured at 442-20 nm at 37° C. every minute for 1 hr in a Clariostar microplate reader (BMG LABTECH). NAD+ cyclase activity was calculated as the slope of the linear portion of the fluorescence-time curve using the MARS data analysis software (BMG LABTECH). The data were uploaded in the Collaborative Drug Design (CDD) Software, and for each compound the IC50 was calculated by the software. For each plate, the z-factor was also calculated as a plate quality using the CDD software.
# [3] = biological target: T2, CD38 NAD+ hydrolase activity in NH7-dCas9 cells (Jurkat clone) (Homo sapiens, UniProt P28907); experiment: Fluorescence-based NAD+ hydrolase activity assay with human T cell line NH7-dCas9 cells-Jurkat clone (Assay 1); conditions: read-out: Assay 1 Arithmetic mean IC50
# T2 construct: The assay utilized CD38 expressing NH7-dCas9 cells (Jurkat clone); host or cells: NH7-dCas9 cells (Jurkat clone)
# T2 sequence (P28907 1-300): T1 sequence (P28907 1-300)
# Method: For the modified assay, the performance validation criteria of the assay as a High Throughput Screening (HTS): Z-factor within the plate was greater than 0.89 (optimal HTS z-factor >0.5) and the Intra-plate, inter-plate and day to day variability (CV) was less than 20%.
# NAD+ hydrolase activity of a human T cell line treated with test compounds was measured using a fluorescence-based assay. NH7-dCas9 cells (Jurkat clone) were provided by the Weissman Lab (UCSF 1700 4th St., Byers Hall, Room 403B, San Francisco, CA 94158-2330). Briefly, cells were centrifuged, resuspended in 44 μl PBS/10^6 cells and plated in a 96 well black plate (CORNING) at a density of 1×10^6 per well.
# as §2, with “at 50 times” for “at 50×”, “from” for “from ranging from”, “containing 1×10^6 cells” for “containing 10 ng protein”, “in PBS.” for “in Sucrose-Tris buffer.”
# Each plate had the following intra plate controls: 3 wells containing cells treated with vehicle only (DMSO), 3 wells of cells treated with the reference compound 78c at a final concentration of 50 nM and 2 wells containing only PBS (used as a background value).
# (§3) The reaction was started by adding nicotinamide 1,N^6-etheno-adenine dinucleotide (Sigma Aldrich) to reach a final concentration of 80 µM. The samples were excited at 321-15 nm, and the emission of fluorescence was measured at 410-20 nm at 37° C. every minute for 1 hr in a Clariostar® microplate reader (BMG LABTECH). NAD+ hydrolase activity was calculated as the slope of the linear portion of the fluorescence-time curve using the MARS data analysis software (BMG LABTECH). The data were uploaded in the Collaborative Drug Design (CDD) Software and for each compound the IC50 was calculated by the software. Each compound was tested in 3 independent experiments on 3 separate days to establish the reproducibility of the results. For each plate, the z-factor was also calculated as a plate quality using the CDD software.
# [4] = biological target: T3, recombinant mouse CD38 Protein (Mus musculus, UniProt P56528); experiment: Fluorescence-based NAD+ hydrolase activity assay with mouse recombinant CD38 protein (Assay 5); format: biochemical; conditions: read-out: Assay 5 Arithmetic mean IC50
# T3 construct: purchased R&D System
# T3 sequence (P56528 1-304): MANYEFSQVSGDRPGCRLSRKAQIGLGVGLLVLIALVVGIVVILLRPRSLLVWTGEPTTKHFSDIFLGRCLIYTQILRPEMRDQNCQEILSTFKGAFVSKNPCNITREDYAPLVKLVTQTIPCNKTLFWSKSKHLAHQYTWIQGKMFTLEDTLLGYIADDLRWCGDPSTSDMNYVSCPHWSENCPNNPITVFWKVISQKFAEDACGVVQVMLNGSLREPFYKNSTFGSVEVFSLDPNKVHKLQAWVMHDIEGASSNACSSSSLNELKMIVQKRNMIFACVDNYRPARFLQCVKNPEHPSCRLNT
# Method: This protocol was modified from the following references: Muller et al. (1983); Schultz et al. (2018); Matalonga et al. (2017); and de Oliveira et al. (2018), supra.
# as §1, with “mouse” for “human”, “96 well” for “96-well”, “2.5” for “10”
# Each test compound was received in a powder state and dissolved in DMSO as a 25 mM stock solution. Each test compound was serially diluted in order to generate a dose-response curve. The dilution series of each test compound in DMSO was prepared at 50 times the concentrations to be assayed. Each test compound was diluted to generate a 5-fold dilution series of 8 concentrations from 20 μM to 0.256 nM in order to assay 8 final concentrations ranging from 400 nM to 25.6 pM. One μl of the 50× concentration compound series was added to each well of the plate containing 2.5 ng of protein in Sucrose-Tris buffer.
# Each plate had the following intra plate controls: 3 wells containing cells treated with vehicle only (DMSO), 3 wells of cells treated with the reference compounds 78c at a final concentration of 50 nM and 2 wells containing only Sucrose-Tris buffer (used as a background value).
# as §3, with “started” for “started by”, “nm” for “nm,”, “Clariostar Microplate®” for “Clariostar® microplate”
SMILES,IC50 [1] [nM],IC50 [2] [nM],IC50 [3] [nM],IC50 [4] [nM]
Cc1cc(NC(=O)c2cccc(-n3ccnc3)n2)cc(C#N)n1 [Compound 4],< 1,51 to 1000,< 1,
COCCNc1cc(NC(=O)c2cccc(-n3ccnc3)n2)ccn1 [Compound 10],1 to 50,,1 to 50,
Cc1cc(C(=O)Nc2ccncc2)nc(-c2cncn2C)c1 [Compound 44],1 to 50,,< 1,1 to 50
O=C(Nc1ccc(C(F)(F)F)nc1)c1cccc(-c2cncs2)n1 [Compound 46],1 to 50,,,
COc1ccc(C(=O)Nc2cccnc2)nc1-n1ccnc1 [Compound 60],51 to 1000,,51 to 1000,1 to 50
COc1ccc(-n2ccnc2)nc1C(=O)Nc1cccnc1 [Compound 63],1 to 50,,1 to 50,1 to 50
"Nc1ccc(-n2ccnc2)nc1C(=O)Nc1ccncc1 [Compound 64, 3-amino-6-(1H-imidazol-1-yl)-N-(pyridin-4-yl)picolinamide]",1 to 50,,< 1,< 1
Nc1ccc(-n2ccnc2)nc1C(=O)Nc1ccnc(F)c1 [Compound 65],< 1,,< 1,< 1
Nc1ccc(-n2ccnc2)nc1C(=O)Nc1ccnc(C(F)(F)F)c1 [Compound 66],1 to 50,,< 1,< 1
O=C(Nc1cccnc1)c1ccnc(-n2ccnc2)n1 [Compound 69],1 to 50,,< 1,

# Next, values leading:
IC50 [1] [nM],IC50 [2] [nM],IC50 [3] [nM],IC50 [4] [nM],SMILES
< 1,51 to 1000,< 1,,O=C(Nc1cc(F)nc(F)c1)c1cccc(-n2ccnc2)n1 [Compound 5]
1 to 50,51 to 1000,< 1,,CCOC(=O)c1cc(NC(=O)c2cccc(-n3ccnc3)n2)ccn1 [Compound 6]
1 to 50,,1 to 50,1 to 50,NC(=O)c1cc(NC(=O)c2cccc(-n3ccnc3)n2)ccn1 [Compound 17]
1 to 50,,1 to 50,1 to 50,CCN(C(C)=O)c1ccc(NC(=O)c2cccc(-n3ccnc3)n2)cn1 [Compound 19]
1 to 50,,1 to 50,1 to 50,O=C(O)c1ccc(NC(=O)c2cccc(-n3ccnc3)n2)cn1 [Compound 21]
1 to 50,,1 to 50,,CNC(=O)c1cc(NC(=O)c2cccc(-n3ccnc3)n2)ccn1 [Compound 23]
51 to 1000,,51 to 1000,,O=C(Nc1ccccn1)c1cccc(-n2ccnc2)n1 [Compound 25]
51 to 1000,,51 to 1000,51 to 1000,Cc1cncn1-c1cccc(C(=O)Nc2cccnc2)n1 [Compound 26]
51 to 1000,,51 to 1000,1 to 50,"Cc1ccc(C(=O)Nc2cccnc2)nc1-n1ccnc1 [Compound 58, 6-(1H-imidazol-1-yl)-5-methyl-N-(pyridin-3-yl)picolinamide]"
< 1,,< 1,,CNc1cc(C(=O)Nc2cccnc2)nc(-n2ccnc2)c1 [Compound 68]
< 1,1000 to 10000,< 1,,O=C(Nc1cccnc1)c1cncc(-n2ccnc2)n1 [Compound 70]
